Test results reported in patent US20210379062A1, “The use of a H3R inverse agonist for the treatment of excessive daytime sleepiness associated with parkinson's disease (PD)” (Novartis AG, priority 2018, published 2021).

System: H3 receptor
Test: Ex vivo receptor occupancy assay in rat frontal cortex
Conditions: rats; for RO: 10 mg/kg oral
Experimental: Male Sprague-Dawley rats (from Shanghai SLAC Laboratory Animal CO. LTD) at the age of 5-6 weeks were used. The animals were housed in a temperature and humidity-controlled environment on a 12 h light/dark cycle with food and water available ad libitum. All the procedures were approved by Institutional Animal Care and Use Committee of Chempartner Co., LTD (IACUC Protocol NO: A998HL0076).
Compounds were dissolved in 50 mM citrate buffer (pH 3.5), or saline. The compound was then diluted stepwise to the final concentration with vehicle. Animals were dosed by p.o. or i.v. in 1 ml/kg bodyweight.
At each time point, rats were decapitated immediately. Intact brain was removed, immersed and washed in pre-cooled saline. After drying with filter paper, frontal cortex was dissected with a double-blade with an about 30° angle starting at ⅓ of anterior rat brain (weight of most brain tissues around 70±10 mg). Brain tissue was transferred into a pre-weighed tube with homogenizer beads. The tubes were weighed again and the tissue net weight was recorded. Tissue sampling was done on ice with intervals of 1 min. Then, 50 mM HEPES (Gibco® by Life Technologies) buffer were added (equivalent to 3.75 μl/mg tissue weight) followed by homogenization (frequency 30/sec for 20 sec, TissueLyser, Quiagen).
The crude homogenate samples of rat frontal cortex were used to measure H3 receptor binding as described above with [^3H]—N-α-methylhistamine as radioligand. The protein concentration of each sample was determined by Pierce BCA Protein Assay Kit (Thermo).
The cortical homogenate was added to a 96-well plate containing [^3H]—N-α-methylhistamine (0.1 nM), in a volume of 0.2 ml (final protein concentration 4 μg/μl), incubated at 28° C. for 15 min and the reaction was stopped by rapid filtration using a filtration plate (Millipore multiscreen GF/B plate). The filters were washed three times with ice-cold wash buffer (50 mM Tris, pH 7.5) and 250 μl of Microscint-40 were added followed by determination of the bound radiolabel with a Wallac Microbeta Trilux 2450 (Perkin Elmer). Nonspecific binding was determined in the presence of 10 μM thioperamide. Each data point was obtained from a total of at least four animals. The inhibition of specific [^3H]NAMH binding, calculated as relative to vehicle-treated samples, was determined to provide an indication of receptor occupancy by the compound. The dose-dependent % RO and time course were analyzed using GraphPad Prism. The dose response was fit using GraphPad Prism: log(inhibitor) vs. response with variable slope.

Which results are given for `Cn1nc(N2CCC(OC(=O)N3CCN(C4CCC4)CC3)CC2)ccc1=O` [Compound (I), 1-(1-methyl-6-oxo-1,6-dihydropyridazin-3-yl)piperidin-4-yl 4-cyclobutylpiperazine-1-carboxylate]?
RO (1 h time point (initial RO)): 95%; RO (4 h): 50%; RO (4 h, listed as LML134): 39%; RO (8 h): 0%; RO (8 h, listed as LML134): almost not RO was detectable; dose that resulted in H3 receptor occupancy of 80-90% (oral dosing, 1 h after compound administration): 10 mg/kg
